Columns and labels:
Capan-1 GR = assay: Effect of gemcitabine on gemcitabine-resistant cell lines (RTCA); format: cell-based, human; conditions: 1.6 uM and 3.2 uM; without medium change or with medium change at 1 h or 3 h; compared to parental cell line
Excerpt: (§1) Gemcitabine-based therapy is currently the standard first-line therapy for patients with advanced PDAC. However, tumor recurrence after gemcitabine treatment may lead to short patient survival (Jia Y, Gu D, Wan J, et al. The role of GLI-SOX2 signaling axis for gemcitabine resistance in pancreatic cancer. Oncogene 2019; 38 (10): 1764-77. doi: 10.1038/s41388-018-0553-0 [published Online First: 2018 Oct. 31]). Therefore, it is critical to verify whether […] cells are effective in killing gemcitabine-resistant tumors in vitro and in vivo. In this case, we established two gemcitabine-resistant (GR) cell lines (Capan-1 GR and MIA Paca-2 GR) by exposing parental Capan-1 and MIA Paca-2 cells to increasing concentrations of gemcitabine for 9 months. […] Compared to the parental cell lines, Capan-1 GR and MIA Paca-2 GR were not killed by gemcitabine at concentrations of 1.6 uM and 3.2 uM, either without medium change or with medium change at 1 h or 3 h (FIG. 6B, FIGS. 10 and 11). We explored the anti-PC effect of […] cells targeting Capan-1 GR and MIA Paca-2 GR cells in vitro. […] We also measured the levels of CD25, CD69, CD107a, TNF-α, and IFN-γ expression of […] cells after co-incubation with GR cells and the parental cells. […] Next, we evaluated the therapeutic effect of […] cells against Capan-1 GR cells in vivo. The parental Capan-1 cells were injected as control.

MIA Paca-2 GR = assay: as above; format: cell-based, human; conditions: 1.6 uM and 3.2 uM; without medium change or with medium change at 1 h or 3 h; compared to parental cell line
Excerpt: as §1

For `Nc1ccn([C@@H]2O[C@H](CO)[C@@H](O)C2(F)F)c(=O)n1` [gemcitabine, 2′,2′-difluorodeoxycytidine], the “killing by gemcitabine (RTCA)” value (Capan-1 GR) was “not killed” and the “killing by gemcitabine (RTCA)” value (MIA Paca-2 GR) was “not killed”.

From US20250360212A1, “COMPOSITIONS AND USES OF PSCA TARGETED CHIMERIC ANTIGEN RECEPTOR MODIFIED CELLS EXPRESSING IL-15” (City of Hope, priority 2023, published 2025)
